biological target: human PDE10A2 (Homo sapiens (Human), UniProt Q9Y233); assay: PDE10 fluorescence polarization (IMAP FP) inhibition assay; type: biochemical; details: FAM-labeled cAMP 50 nM, room temperature, read-out: PDE10a Ki
How it was run: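 Cytoplasmic lysate of AD293 cells transiently expressing human PDE10A2, incubated 30 minutes at room temperature with 50 nM FAM-labeled cAMP in Tris pH 7.2 with MgCl2. Read by IMAP fluorescence polarization; 0% inhibition set by 1% DMSO, 100% by a reference PDE10 inhibitor.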

Sequence of human PDE10A2 (Q9Y233 267-1055): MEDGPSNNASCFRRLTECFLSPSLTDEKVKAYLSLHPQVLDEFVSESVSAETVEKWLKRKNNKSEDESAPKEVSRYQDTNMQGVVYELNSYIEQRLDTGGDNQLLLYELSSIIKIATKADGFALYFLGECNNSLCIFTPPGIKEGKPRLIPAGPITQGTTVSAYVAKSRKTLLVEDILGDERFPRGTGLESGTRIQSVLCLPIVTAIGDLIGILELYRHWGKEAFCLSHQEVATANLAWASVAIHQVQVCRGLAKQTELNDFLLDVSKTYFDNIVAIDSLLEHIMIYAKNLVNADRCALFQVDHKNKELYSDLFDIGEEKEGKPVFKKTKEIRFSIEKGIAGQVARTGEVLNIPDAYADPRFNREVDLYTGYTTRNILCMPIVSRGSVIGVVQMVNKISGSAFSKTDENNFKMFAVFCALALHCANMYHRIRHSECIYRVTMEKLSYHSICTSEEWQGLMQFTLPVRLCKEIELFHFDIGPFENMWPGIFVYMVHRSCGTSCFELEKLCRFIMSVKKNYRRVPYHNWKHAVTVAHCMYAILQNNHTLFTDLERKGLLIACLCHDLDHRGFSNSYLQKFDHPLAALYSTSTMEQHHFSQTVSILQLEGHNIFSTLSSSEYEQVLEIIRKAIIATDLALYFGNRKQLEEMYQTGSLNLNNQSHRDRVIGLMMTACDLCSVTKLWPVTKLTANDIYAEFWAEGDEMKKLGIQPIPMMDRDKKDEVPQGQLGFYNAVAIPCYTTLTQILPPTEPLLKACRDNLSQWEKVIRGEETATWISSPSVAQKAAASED

SMILES | Ki
Cc1nc(OCc2ccc3ccccc3n2)cc(-n2nc(C)nc2Cc2nc(C)sc2C)n1 [Cpd 9, 2,5-dimethyl-4-((3-methyl-1-(2-methyl-6-(quinolin-2-ylmethoxy)pyrimidin-4-yl)-1H-1,2,4-triazol-5-yl)methyl)thiazole] | 62 nM
Cc1nc([C@H]2C[C@@H]2c2nc3ccccc3[nH]2)cc(-n2nc(C)nc2C)n1 [Cpd 90, 2-{(1S,2S)-2-[6-(3,5-dimethyl-1H-1,2,4-triazol-1-yl)-2-methylpyrimidin-4-yl]cyclopropyl}-1H-benzimidazole] | 38 nM
COc1ccc2nc(C3CC3c3cc(-n4nc(C)nc4C)nc(C)n3)[nH]c2c1 (centres unmarked) [Cpd 59, 2-(2-(6-(3,5-dimethyl-1H-1,2,4-triazol-1-yl)-2-methylpyrimidin-4-yl)cyclopropyl)-6-methoxy-1H-benzo[d]imidazole] | 30.5 nM
Cc1nc(C2CC2c2nc3ccc(OC(F)F)cc3[nH]2)cc(-n2nc(C)nc2C)n1 (centres unmarked) [Cpd 60, 6-(difluoromethoxy)-2-(2-(6-(3,5-dimethyl-1H-1,2,4-triazol-1-yl)-2-methylpyrimidin-4-yl)cyclopropyl)-1H-benzo[d]imidazole] | 58.2 nM
Cc1nc(C)n(-c2cc([C@H]3C[C@@H]3c3nc4ccccc4n3C)nc(N)n2)n1 (relative stereo) [Cpd 123, trans-4-(3,5-dimethyl-1H-1,2,4-triazol-1-yl)-6-[2-(1-methyl-1H-benzimidazol-2-yl)cyclopropyl]pyrimidin-2-amine] | 4.2 nM
Cc1nc([C@H]2C[C@@H]2c2nc3ccccc3n2C)cc(-n2nc(C)nc2C2CCCCC2)n1 (stereo in doubt) [Cpd 79, 2-{2-[6-(5-cyclohexyl-3-methyl-1H-1,2,4-triazol-1-yl)-2-methylpyrimidin-4-yl]cyclopropyl}-1-methyl-1H-benzimidazole] | 2.5 nM
Cc1nc(CCc2ccc3ncccc3n2)cc(-n2nc(C)nc2C)n1 [Cpd 99, 2-{2-[6-(3,5-dimethyl-1H-1,2,4-triazol-1-yl)-2-methylpyrimidin-4-yl]ethyl}-1,5-naphthyridine] | 73 nM
Cc1ccc2nc(C3CC3c3cc(-n4nc(C)nc4C)nc(C)n3)[nH]c2c1 (centres unmarked) [Cpd 58, 2-(2-(6-(3,5-dimethyl-1H-1,2,4-triazol-1-yl)-2-methylpyrimidin-4-yl)cyclopropyl)-6-methyl-1H-benzo[d]imidazole] | 34.9 nM
Cc1nc(C)n(-c2cc([C@H]3C[C@@H]3c3nc4ccccc4n3C)nc(NC(C)(C)C)n2)n1 (relative stereo) [Cpd 118, trans-N-tert-butyl-4-(3,5-dimethyl-1H-1,2,4-triazol-1-yl)-6-[2-(1-methyl-1H-benzimidazol-2-yl)cyclopropyl]pyrimidin-2-amine] | 1.7 nM
Cc1nc([C@@H]2C[C@H]2c2nc3ccccc3n2C)cc(-n2nc(C)nc2[C@@H]2CCCO2)n1 [Cpd 101, 1-methyl-2-[(1R,2R)-2-(2-methyl-6-{3-methyl-5-[(2S)-tetrahydrofuran-2-yl]-1H-1,2,4-triazol-1-yl}pyrimidin-4-yl)cyclopropyl]-1H-benzimidazole] | 5.8 nM
Cc1nc(C)n(-c2cc([C@H]3C[C@@H]3c3nc4ccccc4n3C)nc(NC(C)C)n2)n1 (relative stereo) [Cpd 115, trans-4-(3,5-dimethyl-1H-1,2,4-triazol-1-yl)-6-[2-(1-methyl-1H-benzimidazol-2-yl)cyclopropyl]-N-(1-methylethyl)pyrimidin-2-amine] | 1.9 nM
Cc1nc(C2CC2c2nc3ccccc3n2Cc2ccccc2)cc(-n2nc(C)nc2C)n1 (centres unmarked) [Cpd 52, 1-benzyl-2-(2-(6-(3,5-dimethyl-1H-1,2,4-triazol-1-yl)-2-methylpyrimidin-4-yl)cyclopropyl)-1H-benzo[d]imidazole] | 13.4 nM
CCc1nc(CC)n(-c2cc([C@@H]3C[C@H]3c3nc4ccccc4n3C)nc(C)n2)n1 [Cpd 106, 2-{(1R,2R)-2-[6-(3,5-diethyl-1H-1,2,4-triazol-1-yl)-2-methylpyrimidin-4-yl]cyclopropyl}-1-methyl-1H-benzimidazole] | 2.8 nM
Cc1nc(C2CC2c2nc3cccc(C)c3[nH]2)cc(-n2nc(C)nc2C)n1 (centres unmarked) [Cpd 55, 2-(2-(6-(3,5-dimethyl-1H-1,2,4-triazol-1-yl)-2-methylpyrimidin-4-yl)cyclopropyl)-7-methyl-1H-benzo[d]imidazole] | 16.8 nM
Cc1nc([C@@H]2C[C@H]2c2nc3ccccc3n2C)cc(-n2nc(C)nc2CF)n1 [Cpd 93, 2-[(1R,2R)-2-{6-[5-(fluoromethyl)-3-methyl-1H-1,2,4-triazol-1-yl]-2-methylpyrimidin-4-yl}cyclopropyl]-1-methyl-1H-benzimidazole] | 3.1 nM
Cc1nc(C2CC2c2nnc(C)s2)cc(-n2nc(C)nc2C)n1 (centres unmarked) [Cpd 40, 2-(2-(6-(3,5-dimethyl-1H-1,2,4-triazol-1-yl)-2-methylpyrimidin-4-yl)cyclopropyl)-5-methyl-1,3,4-thiadiazole] | 124 nM
Cc1nc([C@H]2C[C@@H]2c2nc3ncccc3n2C)cc(-n2nc(C)nc2C)n1 (stereo in doubt) [Cpd 80, 2-{2-[6-(3,5-dimethyl-1H-1,2,4-triazol-1-yl)-2-methylpyrimidin-4-yl]cyclopropyl}-1-methyl-1H-imidazo[4,5-b]pyridine] | > 75 nM
COc1ccc(Cc2nc(C)nn2-c2cc(C3CC3c3nc(C)no3)nc(C)n2)cc1OC (centres unmarked) [Cpd 24, 5-(2-(6-(5-(3,4-dimethoxybenzyl)-3-methyl-1H-1,2,4-triazol-1-yl)-2-methylpyrimidin-4-yl)cyclopropyl)-3-methyl-1,2,4-oxadiazole] | 248 nM
Cc1nc([C@H]2C[C@@H]2c2nc3ccccc3n2CCF)cc(-n2nc(C)nc2C)n1 [Cpd 103, 2-{(1S,2S)-2-[6-(3,5-dimethyl-1H-1,2,4-triazol-1-yl)-2-methylpyrimidin-4-yl]cyclopropyl}-1-(2-fluoroethyl)-1H-benzimidazole] | 2.9 nM

These reach a lower Ki. Values come first.

Ki | SMILES
0.027 nM | COc1ccc(Cc2nc(C)nn2-c2cc(CCc3ccc4ncccc4n3)nc(C)n2)cc1OC [Cpd 16, 2-(2-(6-(5-(3,4-dimethoxybenzyl)-3-methyl-1H-1,2,4-triazol-1-yl)-2-methylpyrimidin-4-yl)ethyl)-1,5-naphthyridine]
1.2 nM | Cc1nc(C)n(-c2cc([C@H]3C[C@@H]3c3nc4ccccc4n3C)nc(OCCF)n2)n1 (relative stereo) [Cpd 122, trans-2-{2-[6-(3,5-dimethyl-1H-1,2,4-triazol-1-yl)-2-(2-fluoroethoxy)pyrimidin-4-yl]cyclopropyl}-1-methyl-1H-benzimidazole]
0.023 nM | COc1ccc(Cc2nc(C)nn2-c2cc(C#Cc3ccc4ccccc4n3)nc(C)n2)cc1OC [Cpd 2, 2-((6-(5-(3,4-dimethoxybenzyl)-3-methyl-1H-1,2,4-triazol-1-yl)-2-methylpyrimidin-4-yl)ethynyl)quinoline]
0.84 nM | Cc1nc(C)n(-c2cc([C@@H]3C[C@H]3c3nc4ccccc4n3C)nc(OCC3(C)CC3)n2)n1 [Cpd 137, 2-((1R,2R)-2-(6-(3,5-dimethyl-1H-1,2,4-triazol-1-yl)-2-((1-methylcyclopropyl)methoxy)pyrimidin-4-yl)cyclopropyl)-1-methyl-1H-benzo[d]imidazole]
0.004 nM | COc1ccc(Cc2nc(C)nn2-c2cc(CCc3ccc4ccccc4n3)nc(C)n2)cc1OC [Cpd 3, 2-(2-(6-(5-(3,4-dimethoxybenzyl)-3-methyl-1H-1,2,4-triazol-1-yl)-2-methylpyrimidin-4-yl)ethyl)quinoline]
1.1 nM | Cc1nc([C@@H]2C[C@H]2c2nc3ccccc3n2C)cc(-n2nc(C)nc2C2CCOCC2)n1 [Cpd 97, 1-methyl-2-[(1R,2R)-2-{2-methyl-6-[3-methyl-5-(tetrahydro-2H-pyran-4-yl)-1H-1,2,4-triazol-1-yl]pyrimidin-4-yl}cyclopropyl]-1H-benzimidazole]
0.37 nM | CSc1nc([C@@H]2C[C@H]2c2nc3ccccc3n2C)cc(-n2nc(C)nc2C)n1 [Cpd 69, 2-{(1R,2R)-2-[6-(3,5-dimethyl-1H-1,2,4-triazol-1-yl)-2-(methylsulfanyl)pyrimidin-4-yl]cyclopropyl}-1-methyl-1H-benzimidazole]
0.028 nM | COc1ccc(Cc2nc(C)nn2-c2cc(CCc3ccc4ccccc4n3)nc(C)n2)nc1OC [Cpd 8, 2-(2-(6-(5-((5,6-dimethoxypyridin-2-yl)methyl)-3-methyl-1H-1,2,4-triazol-1-yl)-2-methylpyrimidin-4-yl)ethyl)quinoline]
1.4 nM | COCc1nc(C)nn1-c1cc([C@H]2C[C@@H]2c2nc3ccccc3n2C)nc(C)n1 (stereo in doubt) [Cpd 86, 2-[2-{6-[5-(methoxymethyl)-3-methyl-1H-1,2,4-triazol-1-yl]-2-methylpyrimidin-4-yl}cyclopropyl]-1-methyl-1H-benzimidazole]
0.75 nM | Cc1nc(C)n(-c2cc([C@@H]3C[C@H]3c3nc4ccccc4n3C)nc(N3CC(F)(F)C3)n2)n1 [Cpd 132, 2-((1R,2R)-2-(2-(3,3-difluoroazetidin-1-yl)-6-(3,5-dimethyl-1H-1,2,4-triazol-1-yl)pyrimidin-4-yl)cyclopropyl)-1-methyl-1H-benzo[d]imidazole]
0.77 nM | CNc1nc([C@@H]2C[C@H]2c2nc3ccccc3n2C)cc(-n2nc(C)nc2C)n1 [Cpd 62, 4-(3,5-dimethyl-1H-1,2,4-triazol-1-yl)-N-methyl-6-[(1R,2R)-2-(1-methyl-1H-benzimidazol-2-yl)cyclopropyl]pyrimidin-2-amine]
0.14 nM | Cc1ccc(CCc2cc(-n3nc(C)nc3C)nc(C)n2)nc1 [Cpd 50, 4-(3,5-dimethyl-1H-1,2,4-triazol-1-yl)-2-methyl-6-(2-(5-methylpyridin-2-yl)ethyl)pyrimidine]
1.1 nM | Cc1nc(C)n(-c2cc([C@H]3C[C@@H]3c3nc4ccccc4n3C)nc(OCC3CC3)n2)n1 (relative stereo) [Cpd 120, trans-2-{2-[2-(cyclopropylmethoxy)-6-(3,5-dimethyl-1H-1,2,4-triazol-1-yl)pyrimidin-4-yl]cyclopropyl}-1-methyl-1H-benzimidazole]
